Measurements taken from PMC10716780, “The multistep oxidation of cholesterol to pregnenolone by human cytochrome P450 11A1 is highly processive” (The Journal of Biological Chemistry, 2023).
Where two headings read alike, the source gives them in different places.

Molecular target: T1, human P450 11A1 (Homo sapiens, UniProt P05108)
T1 construct: M A S T R S P R P F N E I P S P G D N; Met-Ala (N-terminal start residues in place of the transit peptide and Ile40) (N); made in house; host or cells: E. coli C41(DE3) with GroES/GroEL, vector pET23C(+)
T1 sequence (P05108 41-521 limits assumed): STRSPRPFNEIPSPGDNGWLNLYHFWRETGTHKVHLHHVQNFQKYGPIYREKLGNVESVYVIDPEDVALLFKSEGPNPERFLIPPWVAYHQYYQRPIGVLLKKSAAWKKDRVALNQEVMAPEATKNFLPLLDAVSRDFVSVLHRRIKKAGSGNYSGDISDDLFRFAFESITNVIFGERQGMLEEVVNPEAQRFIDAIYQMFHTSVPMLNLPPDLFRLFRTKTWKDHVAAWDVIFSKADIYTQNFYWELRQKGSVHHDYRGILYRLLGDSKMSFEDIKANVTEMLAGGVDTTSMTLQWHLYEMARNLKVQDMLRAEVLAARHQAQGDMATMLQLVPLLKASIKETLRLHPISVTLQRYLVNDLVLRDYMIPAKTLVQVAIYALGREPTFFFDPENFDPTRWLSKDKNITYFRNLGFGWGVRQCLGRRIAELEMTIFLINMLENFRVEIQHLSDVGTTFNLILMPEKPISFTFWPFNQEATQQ
Experiment: Steady-state spectral (type I) binding titration, Kd determination
Procedure: Ligand binding constants were determined from the low-to high-spin (hypsochromic) spectral transition that occurs at the P450 heme as substrate entering the active site replaces water as the sixth axial heme ligand. […] As a result, we subsequently measured koff values of the P450-sterol complexes, which were consistent with the low Kd values observed (see below). Binding titrations were repeated in the presence of Adx (1 M equivalent, Fig. 6), although no significant effect was observed, even when Adx was added in excess (10-fold with cholesterol as the substrate, data not shown).
Spectra were recorded using either an OLIS-Cary 14 or OLIS-Aminco DW2a instrument (On-Line Instrument Systems) in the split-beam mode. The OLIS-Cary 14 instrument was used in the P450 11A1 titrations with a 10-cm cell (Starna Cells, catalog no. 34-Q-100, volume 25 ml).
Kd values were determined by difference spectroscopy as previously reported ([33], [43]) but with some modifications. Briefly, a long-path quartz cuvette (10 cm, 25 ml) containing P450 11A1 (0.1 μM, in 100 mM potassium phosphate buffer (pH 7.4)) was prepared and a baseline was recorded in an OLIS-Cary 14 spectrophotometer. Where indicated, the redox partner Adx was added in equimolar concentration (0.1 μM) to P450. Sterol solutions (in 45% HPCD, w/v) were added to the cuvette, the contents of the cuvette were inverted to mix, and a spectrum was recorded (350–500 nm) after each addition. The total volume added to each cuvette was kept ≤2% (v/v, 0.25 ml) in the assay. The maximum absorbance difference (usually ΔA390−A418) was plotted against the total sterol concentration, and the data were fit to a quadratic equation in GraphPad Prism software (GraphPad, https://www.graphpad.com) to estimate the dissociation constant (Kd). A quadratic equation was used to correct the ligand concentration for the enzyme-bound concentration (used as Y=B+A/2∗1/E∗((Kd+E+X)−(Kd+E+X)^2−(4∗E∗X)) (or Y = B + (A/2)∗(1/E)∗((Kd + E + X)-sqrt((Kd + E + X)∧2 -(4∗E∗X)) in Prism software), where E = enzyme concentration, Kd = dissociation constant, and X = […]).

[1] = 0.10 μM P450 11A1, 10 cm cuvette, with 0.10 μM Adx, quadratic fit, read-out: Kd, (+) Adx
[2] = 0.10 μM P450 11A1, 10 cm cuvette, without Adx, quadratic fit, read-out: Kd, (−) Adx

`CC(C)CC[C@@H](O)[C@](C)(O)[C@H]1CC[C@H]2[C@@H]3CC=C4C[C@@H](O)CC[C@]4(C)[C@H]3CC[C@]12C` [20R,22R-(OH)2 Chol, (20R,22R)-Cholest-5-ene-3β,20,22-triol] was tested. Which Kd [1] did it give?
The Kd was 40 ± 10 nM.

What about the Kd [2] of the same compound?
The Kd was 30 ± 20 nM.

`CC(C)CC[C@H](O)[C@](C)(O)[C@H]1CC[C@H]2[C@@H]3CC=C4C[C@@H](O)CC[C@]4(C)[C@H]3CC[C@]12C` [20R,22S-(OH)2 Chol, (20R,22S)-Cholest-5-ene 3β,20,22-triol] was tested. Which Kd [1] did it give?
Its Kd is 90 ± 20 nM.

What about the Kd [2] of the same compound?
Its Kd is 120 ± 30 nM.

How did the Kd (Kd, 100 nM P450 11A1, 10-cm cell, quadratic fitting) turn out when `CC(C)CC[C@@H](O)[C@@H](C)[C@H]1CC[C@H]2[C@@H]3CC=C4C[C@@H](O)CC[C@]4(C)[C@H]3CC[C@]12C` [22R-OH Chol, 22R-hydroxycholesterol] was run?
The Kd was roughly 20 nM.

And the Kd (Kd, (+) Adx, 0.10 μM P450 11A1, 10 cm cuvette, with 0.10 μM Adx, quadratic fit)?
Its Kd is 20 ± 3 nM.

What about the Kd (Kd, (−) Adx, 0.10 μM P450 11A1, 10 cm cuvette, without Adx, quadratic fit) of the same compound?
The Kd was 20 ± 10 nM.

Which results are given for `CC(C)CCC[C@@H](C)[C@H]1CC[C@H]2[C@@H]3CC=C4C[C@@H](O)CC[C@]4(C)[C@H]3CC[C@]12C` [Cholesterol]?
Kd [1]: 110 ± 10 nM; Kd [2]: 120 ± 10 nM

With `CC(=O)[C@H]1CC[C@H]2[C@@H]3CC=C4C[C@@H](O)CC[C@]4(C)[C@H]3CC[C@]12C` [Pregnenolone] as the compound, how does the Kd [1] read?
Its Kd is 560 ± 120 nM.

And the Kd [2]?
The Kd was 480 ± 220 nM.
